Values of other authors in patent US20190008969A1, “COMPOSITIONS FOR DRUG DELIVERY” (Tioga Research, Inc., priority 2017, published 2019).

Conditions: spray format at 0.25 wt %

C[C@@H]1C[C@H]2[C@@H]3CCC4=CC(=O)C=C[C@]4(C)[C@@]3(F)[C@@H](O)C[C@]2(C)[C@H]1C(=O)CO [desoximetasone, (8S,9S,10S,11S,13S,14S,16R,17S)-9-fluoro-11-hydroxy-17-(2-hydroxyacetyl)-10,13,16-trirmethyl-7,8,11,12,14,15,16,17-octahydro-6H-cyclopenta[a]phenanthren-3-one]
Efficacy in treating psoriasis: efficacious | Safety in treating psoriasis: safe
